Data on four compounds can be found in patent US9174925B2 (priority 2011, dated 2015).

Test [1] relates to NK92 cells. Format: cell-based, human.
Test [2] concerns Epstein-Barr virus. The settings on record: reported in literature (Hirota M. et al., 1979); cited from earlier work.
For test [3] the following is noted: reported in literature (Hirota M. et al., 1979); cited from earlier work.

Molecules are shown by their SMILES. Where two headings read alike, the source gives them in different places.

Turning to `CCCCCCCCCCCCCCCC(=O)O[C@@H]1[C@@H](C)[C@]2(O)[C@@H]3C=C(C)C(=O)[C@@H]3CC(CO)=C[C@H]2[C@H]2[C@]1(OC(C)=O)[C@@]2(C)CO` [Compound 5, 12-O-hexadecanoyl-4-deoxy-4α-16-hydroxyphorbol-13-acetate], in test [1] (8 μM, FIG. 7), the “activity for inducing IFN-γ production” value is recorded as “had activity for inducing IFN-γ production”.

For `CCCCCCCCCCCCCCCC(=O)O[C@@H]1[C@@H](C)[C@@]2(O)[C@@H](C=C(CO)C[C@]3(O)C(=O)C(C)=C[C@@H]23)[C@H]2[C@]1(OC(C)=O)[C@]2(C)CO` [Compound 4, 12-O-hexadecanoyl-16-hydroxyphorbol-13-acetate], the Epstein-Barr virus activation entry in test [2] was “Epstein-Barr virus activation”. In addition, in test [3], the piscicidal effects entry is recorded as “piscicidal effects”.

Turning to `CCCCCCCCCCCCCCCC(=O)OC1C(C)C2(O)C(C(=O)C(CO)=CC3(O)C(=O)C(C)=CC32)C2C(C)(C)C12OC(C)=O` (centres unmarked) [Compound 2, 12-O-hexadecanoyl-7-oxo-5-ene-phorbol-13-acetate], in test [1] (1.6 μM, FIG. 7), the “activity for inducing IFN-γ production” value was “had activity for inducing IFN-γ production”.

In the case of `CCCCCCCCCCCCCCCC(=O)O[C@@H]1[C@@H](C)[C@@]2(O)[C@@H](C(=O)C(CO)=C[C@]3(O)C(=O)C(C)=C[C@@H]23)[C@H]2[C@]1(OC(C)=O)[C@@]2(C)CO` [Compound 1, 12-O-hexadecanoyl-7-oxo-5-ene-16-hydroxyphorbol-13-acetate], the “activity for inducing IFN-γ production” value in test [1] (40 nM, FIG. 8) is recorded as “high activity for inducing IFN-γ production”.
